This note sets out measurements from ChEMBL document CHEMBL3991601, “The target landscape of clinical kinase drugs” (Science, 2017).

Activity calls are given as the source filed them. Bounds are passed on as bounds.

Assay [1] addresses Atypical kinase COQ8A, mitochondrial (Homo sapiens, UniProt Q8NI60).
The target in assay [2] is Myosin light chain kinase, smooth muscle (Homo sapiens, UniProt Q15746).
The target in assay [3] is T1, cGMP-dependent protein kinase 1 (Homo sapiens, UniProt Q13976).
T1 sequence (Q13976 whole entry): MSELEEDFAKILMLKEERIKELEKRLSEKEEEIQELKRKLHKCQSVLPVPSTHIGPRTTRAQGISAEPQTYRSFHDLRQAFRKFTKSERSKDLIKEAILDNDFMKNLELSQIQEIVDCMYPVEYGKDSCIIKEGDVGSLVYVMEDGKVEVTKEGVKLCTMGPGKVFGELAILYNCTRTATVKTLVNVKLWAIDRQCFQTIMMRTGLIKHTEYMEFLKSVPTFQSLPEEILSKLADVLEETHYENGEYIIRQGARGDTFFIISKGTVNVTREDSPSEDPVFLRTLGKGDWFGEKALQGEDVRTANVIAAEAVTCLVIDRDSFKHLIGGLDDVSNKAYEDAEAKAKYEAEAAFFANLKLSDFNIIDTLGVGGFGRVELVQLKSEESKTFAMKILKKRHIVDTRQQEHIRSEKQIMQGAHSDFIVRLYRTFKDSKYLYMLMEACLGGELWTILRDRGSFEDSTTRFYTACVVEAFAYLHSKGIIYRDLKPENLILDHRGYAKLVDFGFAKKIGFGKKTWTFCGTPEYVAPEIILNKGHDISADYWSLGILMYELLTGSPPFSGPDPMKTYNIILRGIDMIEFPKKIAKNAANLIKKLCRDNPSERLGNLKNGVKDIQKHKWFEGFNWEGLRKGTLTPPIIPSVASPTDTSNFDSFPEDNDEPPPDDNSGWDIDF

For assay [4], the target named is T2, Beta-adrenergic receptor kinase 1 (Homo sapiens, UniProt P25098).
T2 sequence (P25098 whole entry): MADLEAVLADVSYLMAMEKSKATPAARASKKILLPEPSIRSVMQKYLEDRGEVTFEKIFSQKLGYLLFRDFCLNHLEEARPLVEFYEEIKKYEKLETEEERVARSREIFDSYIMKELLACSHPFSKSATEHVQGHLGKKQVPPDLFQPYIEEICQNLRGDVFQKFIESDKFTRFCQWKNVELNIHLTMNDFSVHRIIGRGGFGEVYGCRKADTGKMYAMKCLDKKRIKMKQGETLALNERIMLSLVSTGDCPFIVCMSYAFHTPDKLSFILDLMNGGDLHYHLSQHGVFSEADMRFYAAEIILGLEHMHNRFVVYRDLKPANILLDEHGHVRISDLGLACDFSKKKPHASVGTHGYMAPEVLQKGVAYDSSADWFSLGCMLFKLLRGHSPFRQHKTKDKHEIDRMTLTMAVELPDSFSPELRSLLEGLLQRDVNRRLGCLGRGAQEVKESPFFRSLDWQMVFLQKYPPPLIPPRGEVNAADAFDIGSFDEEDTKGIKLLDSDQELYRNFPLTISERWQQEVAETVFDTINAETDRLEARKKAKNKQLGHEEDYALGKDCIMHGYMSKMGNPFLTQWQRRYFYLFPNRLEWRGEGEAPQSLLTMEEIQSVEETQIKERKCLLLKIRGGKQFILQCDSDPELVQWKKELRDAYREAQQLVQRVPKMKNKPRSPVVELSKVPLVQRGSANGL

The target of assay [5] is Fibroblast growth factor receptor 1 (Homo sapiens, UniProt P11362).
Assay [6] addresses T3, Tyrosine--tRNA ligase, cytoplasmic (Homo sapiens, UniProt P54577).
T3 sequence (P54577 whole entry): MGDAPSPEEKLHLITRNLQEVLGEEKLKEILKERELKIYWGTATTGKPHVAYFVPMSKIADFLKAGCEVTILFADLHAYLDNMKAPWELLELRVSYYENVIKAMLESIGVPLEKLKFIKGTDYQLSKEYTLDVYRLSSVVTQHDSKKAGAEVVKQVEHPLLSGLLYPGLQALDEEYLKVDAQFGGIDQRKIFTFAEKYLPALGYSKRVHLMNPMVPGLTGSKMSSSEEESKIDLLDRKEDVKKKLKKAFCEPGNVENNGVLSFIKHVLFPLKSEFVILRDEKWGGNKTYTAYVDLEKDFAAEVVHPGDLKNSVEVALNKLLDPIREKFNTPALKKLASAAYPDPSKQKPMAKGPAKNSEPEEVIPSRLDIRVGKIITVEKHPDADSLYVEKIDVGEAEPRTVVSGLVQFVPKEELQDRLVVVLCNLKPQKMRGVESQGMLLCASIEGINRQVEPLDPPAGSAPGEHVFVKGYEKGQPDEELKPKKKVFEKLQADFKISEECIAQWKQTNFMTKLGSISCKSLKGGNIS

Assay [7] has as its target Aurora kinase B (Homo sapiens, UniProt Q96GD4).
Assay [8] addresses Serine/threonine-protein kinase MRCK gamma (Homo sapiens, UniProt Q6DT37).
For assay [9], the target named is Ras-related protein Rab-6A (Homo sapiens, UniProt P20340).
Ras-related protein Rab-6A, sequence (P20340 whole entry): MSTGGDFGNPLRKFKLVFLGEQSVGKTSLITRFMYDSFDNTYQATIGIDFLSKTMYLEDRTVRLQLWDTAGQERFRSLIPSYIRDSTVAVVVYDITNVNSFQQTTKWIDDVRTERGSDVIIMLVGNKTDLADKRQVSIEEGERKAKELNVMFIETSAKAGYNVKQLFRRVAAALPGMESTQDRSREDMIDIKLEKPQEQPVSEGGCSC
Assay [10] has as its target Cyclin-dependent kinase 3 (Homo sapiens, UniProt Q00526).
For assay [11], the target named is T4, Long-chain-fatty-acid--CoA ligase 5 (Homo sapiens, UniProt Q9ULC5).
T4 sequence (Q9ULC5 whole entry): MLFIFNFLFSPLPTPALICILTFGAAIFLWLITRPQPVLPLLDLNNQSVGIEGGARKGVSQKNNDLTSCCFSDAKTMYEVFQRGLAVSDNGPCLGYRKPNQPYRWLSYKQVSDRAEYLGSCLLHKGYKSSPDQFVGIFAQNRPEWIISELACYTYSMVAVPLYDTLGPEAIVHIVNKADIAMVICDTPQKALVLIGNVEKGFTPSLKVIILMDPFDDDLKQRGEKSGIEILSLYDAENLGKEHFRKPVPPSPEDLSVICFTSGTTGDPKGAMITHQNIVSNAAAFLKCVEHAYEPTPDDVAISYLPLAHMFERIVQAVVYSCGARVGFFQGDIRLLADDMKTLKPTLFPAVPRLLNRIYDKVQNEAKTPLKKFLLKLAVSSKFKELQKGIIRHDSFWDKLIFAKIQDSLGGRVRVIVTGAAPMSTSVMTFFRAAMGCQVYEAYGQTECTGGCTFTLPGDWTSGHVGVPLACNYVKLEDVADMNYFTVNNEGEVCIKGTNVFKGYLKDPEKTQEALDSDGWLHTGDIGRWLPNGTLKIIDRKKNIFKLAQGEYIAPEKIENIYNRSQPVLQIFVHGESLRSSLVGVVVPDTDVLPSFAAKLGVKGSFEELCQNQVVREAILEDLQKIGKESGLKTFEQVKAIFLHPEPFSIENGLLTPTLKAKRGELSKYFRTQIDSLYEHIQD
Further: in the data inactive means no Kd found up to 30 µM.

Serine/threonine-protein kinase MRCK gamma, sequence (Q6DT37 whole entry): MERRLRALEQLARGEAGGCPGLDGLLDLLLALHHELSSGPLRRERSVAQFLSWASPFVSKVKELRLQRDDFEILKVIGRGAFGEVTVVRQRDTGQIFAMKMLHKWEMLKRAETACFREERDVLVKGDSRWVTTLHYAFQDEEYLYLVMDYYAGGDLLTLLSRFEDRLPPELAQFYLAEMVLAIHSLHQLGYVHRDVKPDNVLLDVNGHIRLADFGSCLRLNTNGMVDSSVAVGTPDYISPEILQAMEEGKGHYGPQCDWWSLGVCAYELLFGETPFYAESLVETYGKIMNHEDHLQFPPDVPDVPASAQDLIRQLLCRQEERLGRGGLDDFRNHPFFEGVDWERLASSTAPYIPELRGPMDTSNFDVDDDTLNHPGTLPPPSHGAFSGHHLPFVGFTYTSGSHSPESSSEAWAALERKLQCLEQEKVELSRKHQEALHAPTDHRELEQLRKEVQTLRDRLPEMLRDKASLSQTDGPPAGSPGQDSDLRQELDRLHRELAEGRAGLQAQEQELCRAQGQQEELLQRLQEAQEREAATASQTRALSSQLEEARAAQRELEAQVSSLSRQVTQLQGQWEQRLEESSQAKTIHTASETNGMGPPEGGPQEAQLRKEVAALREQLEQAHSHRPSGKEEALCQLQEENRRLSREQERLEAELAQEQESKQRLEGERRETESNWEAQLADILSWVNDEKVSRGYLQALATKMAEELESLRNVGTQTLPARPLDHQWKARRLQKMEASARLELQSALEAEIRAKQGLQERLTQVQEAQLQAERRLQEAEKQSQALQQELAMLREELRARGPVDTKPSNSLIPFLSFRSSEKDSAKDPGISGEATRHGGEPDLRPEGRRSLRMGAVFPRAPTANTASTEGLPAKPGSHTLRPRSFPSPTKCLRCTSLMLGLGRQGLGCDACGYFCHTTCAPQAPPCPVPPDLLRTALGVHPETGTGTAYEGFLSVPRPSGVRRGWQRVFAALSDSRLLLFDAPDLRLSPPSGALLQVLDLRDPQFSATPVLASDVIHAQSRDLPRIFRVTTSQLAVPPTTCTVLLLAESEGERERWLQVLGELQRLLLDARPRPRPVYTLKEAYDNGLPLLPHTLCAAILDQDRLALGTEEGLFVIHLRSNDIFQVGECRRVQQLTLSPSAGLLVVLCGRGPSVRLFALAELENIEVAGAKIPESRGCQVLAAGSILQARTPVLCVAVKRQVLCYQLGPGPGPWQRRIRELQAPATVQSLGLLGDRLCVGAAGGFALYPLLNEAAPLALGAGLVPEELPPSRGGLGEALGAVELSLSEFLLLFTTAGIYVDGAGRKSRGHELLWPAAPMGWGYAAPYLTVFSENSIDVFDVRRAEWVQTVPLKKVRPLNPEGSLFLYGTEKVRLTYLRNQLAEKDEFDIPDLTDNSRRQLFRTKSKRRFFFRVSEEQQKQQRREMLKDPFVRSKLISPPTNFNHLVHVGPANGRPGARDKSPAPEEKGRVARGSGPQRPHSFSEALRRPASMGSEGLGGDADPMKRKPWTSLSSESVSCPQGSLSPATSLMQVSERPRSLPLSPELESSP
Myosin light chain kinase, smooth muscle, sequence (Q15746 whole entry): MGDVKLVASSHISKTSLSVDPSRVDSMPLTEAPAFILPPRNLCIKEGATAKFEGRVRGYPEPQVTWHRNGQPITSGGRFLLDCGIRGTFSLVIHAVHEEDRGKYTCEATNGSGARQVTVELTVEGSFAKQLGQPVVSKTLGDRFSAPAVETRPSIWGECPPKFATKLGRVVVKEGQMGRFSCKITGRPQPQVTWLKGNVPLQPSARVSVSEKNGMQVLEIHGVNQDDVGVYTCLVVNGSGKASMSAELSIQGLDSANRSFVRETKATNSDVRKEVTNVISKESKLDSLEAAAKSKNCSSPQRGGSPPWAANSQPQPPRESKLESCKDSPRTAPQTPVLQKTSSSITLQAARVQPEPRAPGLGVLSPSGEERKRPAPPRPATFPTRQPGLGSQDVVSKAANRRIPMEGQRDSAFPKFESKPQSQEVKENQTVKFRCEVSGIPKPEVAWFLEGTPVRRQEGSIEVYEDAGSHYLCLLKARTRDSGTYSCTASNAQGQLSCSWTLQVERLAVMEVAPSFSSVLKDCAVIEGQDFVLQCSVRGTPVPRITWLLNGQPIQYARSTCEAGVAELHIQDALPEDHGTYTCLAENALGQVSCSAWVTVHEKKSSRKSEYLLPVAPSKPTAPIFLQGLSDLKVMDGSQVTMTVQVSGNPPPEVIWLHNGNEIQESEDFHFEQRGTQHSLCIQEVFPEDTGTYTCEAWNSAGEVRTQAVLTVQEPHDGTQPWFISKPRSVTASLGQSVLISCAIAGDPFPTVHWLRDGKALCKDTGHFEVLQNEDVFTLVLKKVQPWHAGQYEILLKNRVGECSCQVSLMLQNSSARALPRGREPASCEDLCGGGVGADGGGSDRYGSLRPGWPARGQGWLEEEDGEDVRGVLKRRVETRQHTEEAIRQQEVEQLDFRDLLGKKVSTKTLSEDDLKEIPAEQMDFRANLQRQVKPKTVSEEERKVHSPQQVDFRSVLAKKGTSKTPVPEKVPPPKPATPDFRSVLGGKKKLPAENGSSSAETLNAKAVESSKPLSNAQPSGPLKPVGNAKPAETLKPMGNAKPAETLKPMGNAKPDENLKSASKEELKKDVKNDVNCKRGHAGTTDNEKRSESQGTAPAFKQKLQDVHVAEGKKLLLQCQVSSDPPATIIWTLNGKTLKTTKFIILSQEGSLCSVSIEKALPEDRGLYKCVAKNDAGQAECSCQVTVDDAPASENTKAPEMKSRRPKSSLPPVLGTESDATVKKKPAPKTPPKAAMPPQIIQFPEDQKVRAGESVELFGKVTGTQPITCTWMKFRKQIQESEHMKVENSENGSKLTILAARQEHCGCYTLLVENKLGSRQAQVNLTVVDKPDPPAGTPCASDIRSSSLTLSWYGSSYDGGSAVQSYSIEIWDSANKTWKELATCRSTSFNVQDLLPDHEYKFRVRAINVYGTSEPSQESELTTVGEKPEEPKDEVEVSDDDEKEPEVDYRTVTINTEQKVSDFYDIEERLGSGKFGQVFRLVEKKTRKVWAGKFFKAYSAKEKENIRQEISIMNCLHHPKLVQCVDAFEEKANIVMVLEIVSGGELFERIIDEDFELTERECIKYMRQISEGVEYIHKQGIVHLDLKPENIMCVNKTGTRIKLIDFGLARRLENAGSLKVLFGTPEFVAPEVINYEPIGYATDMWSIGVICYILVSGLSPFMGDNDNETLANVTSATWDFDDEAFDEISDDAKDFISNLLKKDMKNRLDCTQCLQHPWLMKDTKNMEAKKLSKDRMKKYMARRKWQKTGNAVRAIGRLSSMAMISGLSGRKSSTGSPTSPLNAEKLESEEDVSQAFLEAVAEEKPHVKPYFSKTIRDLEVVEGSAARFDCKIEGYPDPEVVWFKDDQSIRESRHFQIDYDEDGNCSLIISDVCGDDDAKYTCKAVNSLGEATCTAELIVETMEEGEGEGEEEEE
Aurora kinase B, sequence (Q96GD4 whole entry): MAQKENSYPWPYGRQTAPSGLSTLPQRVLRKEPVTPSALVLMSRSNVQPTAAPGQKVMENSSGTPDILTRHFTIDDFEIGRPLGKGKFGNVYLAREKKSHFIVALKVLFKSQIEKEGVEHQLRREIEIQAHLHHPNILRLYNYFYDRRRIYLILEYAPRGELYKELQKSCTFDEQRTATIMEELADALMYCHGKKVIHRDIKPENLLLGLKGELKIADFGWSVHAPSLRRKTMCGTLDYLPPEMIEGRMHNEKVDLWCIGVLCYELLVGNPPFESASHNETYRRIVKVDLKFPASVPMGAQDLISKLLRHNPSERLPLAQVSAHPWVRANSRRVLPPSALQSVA
Atypical kinase COQ8A, mitochondrial, sequence (Q8NI60 whole entry): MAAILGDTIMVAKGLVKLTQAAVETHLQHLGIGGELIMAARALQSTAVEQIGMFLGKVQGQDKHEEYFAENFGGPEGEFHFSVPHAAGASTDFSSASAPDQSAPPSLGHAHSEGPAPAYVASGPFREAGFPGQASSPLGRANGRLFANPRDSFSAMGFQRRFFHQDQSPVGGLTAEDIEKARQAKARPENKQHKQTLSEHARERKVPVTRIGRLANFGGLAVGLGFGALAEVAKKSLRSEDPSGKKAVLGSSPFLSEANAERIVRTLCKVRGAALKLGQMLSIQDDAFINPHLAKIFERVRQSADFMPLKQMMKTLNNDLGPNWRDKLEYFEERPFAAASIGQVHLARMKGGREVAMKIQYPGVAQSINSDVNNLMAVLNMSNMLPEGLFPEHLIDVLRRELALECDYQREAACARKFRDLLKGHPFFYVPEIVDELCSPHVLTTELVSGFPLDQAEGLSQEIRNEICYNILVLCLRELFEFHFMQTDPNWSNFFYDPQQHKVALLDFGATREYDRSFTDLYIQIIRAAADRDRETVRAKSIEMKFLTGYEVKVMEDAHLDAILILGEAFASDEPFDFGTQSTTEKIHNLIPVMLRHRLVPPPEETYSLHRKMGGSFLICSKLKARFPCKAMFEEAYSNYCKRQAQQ
Cyclin-dependent kinase 3, sequence (Q00526 whole entry): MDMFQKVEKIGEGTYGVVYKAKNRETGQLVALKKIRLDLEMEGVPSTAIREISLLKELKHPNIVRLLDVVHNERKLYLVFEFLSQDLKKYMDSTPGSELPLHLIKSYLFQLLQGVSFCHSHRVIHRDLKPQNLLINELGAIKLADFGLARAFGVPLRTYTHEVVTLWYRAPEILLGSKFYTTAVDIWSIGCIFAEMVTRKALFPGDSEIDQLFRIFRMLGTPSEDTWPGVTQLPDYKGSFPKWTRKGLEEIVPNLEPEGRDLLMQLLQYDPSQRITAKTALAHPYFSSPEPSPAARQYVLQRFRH

A word on the Kd: it is the free concentration of one partner at which half of the binding sites on the other are occupied at equilibrium, for simple one-to-one binding. Turning to `CC(C)(O)CC(=O)NCCn1ccc2ncnc(Nc3ccc(Oc4cccc(C(F)(F)F)c4)c(Cl)c3)c21` [TAK-285], the Kd in [1], in [2], in assay [3], in assay [4], in assay [5] and in [6] was > 30 µM (inactive) throughout. Besides, the Kd in assay [7], in assay [8], in assay [9], in assay [10] and in assay [11] was > 30 µM (inactive) throughout.
In the case of `COc1cc2ncnc(Nc3ccc(O)cc3)c2cc1OC` [WHI-P131], the Kd in [1], in assay [2], in [3], in assay [4], in assay [5] and in assay [6] was > 30 µM (inactive) in each case. Further, the Kd in [7], in [8], in [9], in [10] and in [11] was > 30 µM (inactive) in each case.
As to `CNC(=O)c1cc(COc2nnc(Nc3ccc(Cl)cc3)c3ccoc23)ccn1` [TELATINIB], the Kd in [1], in [2], in assay [3], in assay [4], in assay [5] and in [6] was > 30 µM (inactive) throughout. The Kd in [7], in assay [8], in assay [9], in [10] and in [11] was > 30 µM (inactive) throughout.
Take `S=C(NCc1ccc2c(c1)OCO2)N1CCN(c2ncnc3c2oc2ccccc23)CC1` [AMUVATINIB]: the Kd in assay [1], in [2], in [3], in [4], in assay [5] and in assay [6] was > 30 µM (inactive) in each case. Also, the Kd in [7], in assay [8], in assay [9], in [10] and in [11] was > 30 µM (inactive) each time.
For `COc1cc(F)c(F)c(Nc2ccc(I)cc2F)c1NS(=O)(=O)C1(C[C@H](O)CO)CC1` [REFAMETINIB], the Kd in assay [1], in assay [2], in assay [3], in assay [4], in [5] and in [6] was > 30 µM (inactive) each time. Moreover, the Kd in [7], in [8], in [9], in assay [10] and in [11] was > 30 µM (inactive) in each case.
For the compound `Cc1c(NC(=O)OC[C@@H]2COCCN2)cn2ncnc(Nc3ccc4c(cnn4Cc4cccc(F)c4)c3)c12` [AC-480], the Kd in assay [1], in assay [2], in assay [3], in assay [4], in [5] and in assay [6] was > 30 µM (inactive) each time. Further, the Kd in [7], in [8], in [9], in assay [10] and in [11] was > 30 µM (inactive) throughout.
Take `O[C@H]1CC[C@H](Nc2ncc3nc(Nc4c(F)cc(F)cc4F)n([C@H]4CCOC4)c3n2)CC1` [TANZISERTIB]: the Kd is > 30 µM (inactive) in assay [1]; 2.63 µM in assay [2]; > 30 µM (inactive) in [3]; > 30 µM (inactive) in [4]; > 30 µM (inactive) in assay [5]; > 30 µM (inactive) in [6]. The Kd in assay [7], in [8], in [9], in assay [10] and in [11] was > 30 µM (inactive) throughout.
